Data taken from patent US6239131A, “1,5 Benzodiazepine derivatives” (Zeria Pharmaceutical Co., Ltd., priority 1996, dated 2001).
pKi: −log10 of the molar value. Where two headings read alike, the source gives them in different places. Blank lines part the entries; values can stand above or below the molecule they belong to.

Legend:
[1] = biological target: T1, CCK-B receptors (Cavia porcellus, UniProt H0VZC5); assay: Measurement of Binding Affinity for CCK-B Receptors; design: species or system Hartley-strain guinea pig; conditions: inhibition of specific [3H]CCK-8 (1.0 nM) binding; guinea pig cerebral cortex; 25° C., 2 hours; pH 6.5; read-out: Ki (CCK-B receptors)
T1 construct: Cerebral cortices were removed from Hartley-strain guinea pigs, the cerebral cortices were homogenized; from tissue; host or cells: cerebral cortex of Hartley-strain guinea pigs, crude membrane pellet
T1 sequence (H0VZC5 1-426): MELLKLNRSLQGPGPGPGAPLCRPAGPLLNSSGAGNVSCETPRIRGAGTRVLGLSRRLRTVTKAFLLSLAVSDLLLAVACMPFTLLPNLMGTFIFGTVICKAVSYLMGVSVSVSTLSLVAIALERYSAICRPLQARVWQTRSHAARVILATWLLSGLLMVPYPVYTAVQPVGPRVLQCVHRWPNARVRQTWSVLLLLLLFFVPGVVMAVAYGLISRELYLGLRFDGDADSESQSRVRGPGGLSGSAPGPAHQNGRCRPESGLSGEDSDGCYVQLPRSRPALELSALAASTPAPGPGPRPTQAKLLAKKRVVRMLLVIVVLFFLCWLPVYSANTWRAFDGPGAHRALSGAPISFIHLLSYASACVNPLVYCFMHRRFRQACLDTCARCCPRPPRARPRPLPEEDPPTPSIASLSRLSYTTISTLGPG
Method: Cerebral cortices were removed from Hartley-strain guinea pigs, the cerebral cortices were homogenized in 50 volumes of 50 mM Tris-HCl buffer (pH7.4) and centrifuged at 50000×g for 10 minutes. The Tris-HCl buffer was added to the pellet and recentrifuged as above two times. The final pellet was rehomogenized in 10 mM HEPES buffer (pH 6.5, which hereinafter be abbreviated as "solvent") containing 5 mM MgCl2, 1 mM EGTA, 0.25 mg/ml bacitracin and 130 mM NaCl, and used as the receptor preparation.
Binding assay was measured as follows. Fifty μl of [^3 H]CCK-8 (at the final concentration of 1.0 nM) and 900 μl of the receptor preparation (800 μg protein/tube) were added to 50 μl of either solvent, CCK-8 (1 μM) or a test compound. These ware reacted at 25° C. for 2 hours. After the reaction, the mixture was filtrated through Whatman GF/B filter presoaked in 0.1% BSA. The filter was washed with 3 ml of ice-cold 50 mM Tris-HCl buffer (pH 7.4) four times, immediately after the filtration. The filter was soaked in the ACS-II scintillation cocktail for a day and radioactivity was measured using a liquid scintillation counter. Non-specific binding was defined as the radioactivity in the presence of 1 μM CCK-8. Specific binding was defined as the difference between total binding (used solvent without CCK-8) and non-specific binding. Inhibitor dissociation constant (Ki) of each test compound was determined from the inhibition of specific [^3 H]CCK-8 binding.

[2] = test system: pentagastrin-stimulated acid secretion; assay: Measurement of Inhibition of Pentagastrin-stimulated Acid Secretion; assay type: in vivo, male Sprague-Dawley (SD)-strain rats; conditions: intraduodenal; for inhibition in vivo at 10 mg/kg: read-out: % Inhibition of acid output
Method: Male Sprague-Dawley (SD)-strain rats were used. Each rat was operated to ligate the pylorus, and equip with a duodenal catheter and gastric fistula under a ether anesthesia. After the operation, each rat was placed in a Bollman-type cage and continuously infused pentagastrin (15 μg/kg/hr) through the tail vein. Test compounds were suspended in 0.5% aqueous sodium carboxymethylcellulose (which hereinafter be abbreviated as "vehicle"). Vehicle or test compound was administered through the intraduodenal catheter 1 hour after the beginning of pentagastrin infusion. Acidity of the collected gastric juice was measured by an automatic titillation device. Acid output was determined by multiplying the volume by the acidity of gastric juice. […] [formula]

[3] = biological target: T2, CCK-A receptors (Cavia porcellus, UniProt Q63931); assay: Measurement of Binding Affinity for CCK-A Receptors; design: species or system Hartley-strain guinea pig; conditions: inhibition of specific [3H]L-364,718 (0.2 nM) binding; guinea pig pancreas; 25° C., 2 hours; pH 6.5
T2 construct: Pancreases were removed from Hartley-strain guinea pigs, the pancreases were homogenized; from tissue; host or cells: pancreas of Hartley-strain guinea pigs, crude membrane pellet
T2 sequence (Q63931 1-430): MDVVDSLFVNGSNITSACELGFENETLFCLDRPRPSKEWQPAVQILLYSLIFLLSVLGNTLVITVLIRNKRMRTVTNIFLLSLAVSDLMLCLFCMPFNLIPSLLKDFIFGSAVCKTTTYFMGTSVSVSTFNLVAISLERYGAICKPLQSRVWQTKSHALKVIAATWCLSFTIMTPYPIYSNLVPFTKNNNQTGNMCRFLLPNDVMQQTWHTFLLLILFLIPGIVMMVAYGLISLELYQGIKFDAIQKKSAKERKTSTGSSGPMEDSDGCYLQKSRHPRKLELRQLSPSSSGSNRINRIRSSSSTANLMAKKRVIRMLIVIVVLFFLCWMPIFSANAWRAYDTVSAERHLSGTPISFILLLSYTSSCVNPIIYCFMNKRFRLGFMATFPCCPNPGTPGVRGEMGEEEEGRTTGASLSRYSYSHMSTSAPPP
Method: Pancreases were removed from Hartley-strain guinea pigs, the pancreases were homogenized in 40 volumes of 10 mM PIPES buffer (pH 6.5, which hereinafter be abbreviated as "solvent") containing 1 mM EGTA, 30 mM MgCl2, 0.02% bacitracin, 0.02% soybean trypsin inhibitor and 0.3 M sucrose. The homogenate was filtrated through gauze and centrifuged at 50000×g for 10 minutes. Solvent was added to the pellet and recentrifuged as above. The final pellet thus obtained was homogenized in 40 volumes of solvent and used as the receptor preparation.
Binding assay was measured as follows. Fifty μl of [^3 H]L-364, 718 (at the final concentration of 0.2 nM) and 900 μl of the receptor preparation (50 μg protein/tube) were added to 50 μl of solvent, or L-364, 718 (1 μM) or a test compound. This mixture was incubated at 25° C. for 2 hours. After the reaction, the mixture was filtrated through Whatman GF/B filter presoaked in 0.1% BSA (bovine serum albumin). The filter was washed with 3 ml of ice-cold 10 mM PIPES buffer (pH 6.5) three times, immediately after the filtration. The filter was soaked in the ACS-II scintillation cocktail for one day and radioactivity was measured using a liquid scintillation counter. Non-specific binding was defined as the radioactivity in the presence of 1 μM L-364, 718. Specific binding was defined as the difference between total binding (used solvent without L-364, 718) and non-specific binding. lnhibitor dissociation constant (Ki) of each test compound was determined from the inhibition of specific [^3 H]L-364, 718 binding.

[4] = rat, acid output from 1 to 4 hours after administration, pentagastrin 15 μg/kg/hr

pKi [1]: 8.92
Compound: CC(C)(C)C(=O)CN1C(=O)C(NC(=O)Nc2cccc(C(=O)O)c2)CN(C2CCCCC2)c2ccccc21 (stereo not shown) [Example 121, 3-[3-(1-tert-butylcarbonylmethyl-2-oxo-5-cyclohexyl-1,3,4,5-tetrahydro-2H-1,5-benzodiazepin-3-yl)ureido]benzoic acid]
inhibition in vivo at 0.3 mg/kg ([2]; 0.3 mg/kg, rat, acid output from 1 to 4 hours after administration, pentagastrin 15 μg/kg/hr): 47%

pKi [1]: 9.20
Compound: CC(C)(C)C(=O)CN1C(=O)[C@H](NC(=O)Nc2cccc(C(=O)O)c2)CN(C2CCCCC2)c2ccccc21 [Example 143, (R)-(-)-3-[3-(1-tert-butylcarbonylmethyl-2-oxo-5-cyclohexyl-1,3,4,5-tetrahydro-2H-1,5-benzodiazepin-3-yl)ureido]benzoic acid]
inhibition in vivo at 0.1 mg/kg ([2]; 0.1 mg/kg, rat, acid output from 1 to 4 hours after administration, pentagastrin 15 μg/kg/hr): 54.6%

pKi [1]: 10.00
Compound: CC(C)(C)C(=O)CN1C(=O)[C@H](NC(=O)Nc2cccc(SCC(=O)O)c2)CN(C2CCCCC2)c2ccccc21 [Example 169, (R)-(-)-3-[3-(1-tert-butylcarbonylmethyl-2-oxo-5-cyclohexyl-1,3,4,5-tetrahydro-2H-1,5-benzodiazepin-3-yl)ureido]phenylthioacetic acid]
inhibition in vivo at 1 mg/kg [2, 4]: 75.2%

pKi [1]: 8.80
pKi [3]: 6.44
Compound: Cc1ccc2c(c1)N(CC(=O)C(C)(C)C)C(=O)C(NC(=O)Nc1cccc(C(=O)O)c1)CN2c1ccccc1 (single isomer, unassigned; (-)) [Example 97, (-)-3-[3-(1-tert-butylcarbonylmethyl-2-oxo-5-phenyl-8-methyl-1,3,4,5-tetrahydro-2H-1,5-benzodiazepin-3-yl)ureido]benzoic acid]

pKi [1]: 8.79
Compound: Cc1ccc2c(c1)N(CC(=O)c1ccccc1C)C(=O)C(NC(=O)Nc1cccc(C(=O)O)c1)CN2C(=O)C(C)(C)CCl (stereo not shown) [Example 94, 3-[3-[1-(2-toluoylmethyl)-2-oxo-5-(3-chloro-2,2-dimethylpropionyl)-8-methyl-1,3,4,5-tetrahydro-2H-1,5-benzodiazepin-3-yl]ureido]benzoic acid]
inhibition in vivo at 30 mg/kg [2, 4]: 93.3%

pKi [1]: 8.65
Compound: Cc1ccc2c(c1)N(CC(=O)C(C)(C)C)C(=O)C(NC(=O)Nc1cccc(C(=O)O)c1)CN2c1ccccc1 (stereo not shown) [Example 95, 3-[3-(1-tert-butylcarbonylmethyl-2-oxo-5-phenyl-8-methyl-1,3,4,5-tetrahydro-2H-1,5-benzodiazepin-3-yl]ureido]benzoic acid]
inhibition in vivo at 1 mg/kg [2, 4]: 49%

pKi [3]: 8.20
Compound: CC(=O)N1CC(NC(=O)Nc2cccc(C(=O)O)c2)C(=O)N(CC(=O)c2ccccc2C)c2cc(C)ccc21 (stereo not shown) [Example 111, 3-[3-[1-(2-toluoylmethyl)-2-oxo-5-acetyl-8-methyl-1,3,4,5-tetrahydro-2H-1,5-benzodiazepin-3-yl]ureido]benzoic acid]

pKi [1]: 8.03
Compound: Cc1ccc2c(c1)N(CC(=O)c1ccco1)C(=O)C(NC(=O)Nc1cccc(C(=O)O)c1)CN2C(=O)C(C)(C)C (stereo not shown) [Example 114, 3-[3-[1-(furan-2-yl)carbonylmethyl-2-oxo-5-pivaloyl-8-methyl-1,3,4,5-tetrahydro-2H-1,5-benzodiazepin-3-yl]ureido]benzoic acid]
inhibition in vivo at 30 mg/kg [2, 4]: 89.7%

pKi [1]: 9.68
Compound: CC(C)(C)C(=O)CN1C(=O)[C@H](NC(=O)Nc2cccc(C(=O)NS(C)(=O)=O)c2)CN(C2CCCCC2)c2ccccc21 [Example 168, (R)-(-)-1-(1-tert-butylcarbonylmethyl-2-oxo-5-cyclohexyl-1,3,4,5-tetrahydro-2H-1,5-benzodiazepin-3-yl)-3-(3-methylsulfonylaminocarbonylphenyl)urea]
inhibition in vivo at 1 mg/kg [2, 4]: 58.9%

The next lines start with the molecule.

Compound: CC(C)(C)OC(=O)CN1C(=O)C(NC(=O)Nc2cccc(C(=O)O)c2)CN(c2ccccc2)c2ccccc21 (stereo not shown) [Example 80, 3-[3-[1-tert-butoxycarbonylmethyl-2-oxo-5-phenyl-1,3,4,5-tetrahydro-2H-1,5-benzodiazepin-3-yl]ureido]benzoic acid]
pKi [1]: 8.58
inhibition in vivo at 3 mg/kg [2, 4]: 45.4%

Compound: Cc1cccc(NC(=O)NC2CN(C(=O)C3CCCC3)c3ccccc3N(CC(=O)c3ccccc3C)C2=O)c1 (stereo not shown) [Example 28, 1-[1-(2-toluoylmethyl)-2-oxo-5-cyclopentylcarbonyl-1,3,4,5-tetrahydro-2H-1,5-benzodiazepin-3-yl]-3-(3-methylphenyl)urea]
pKi [3]: 7.84

Compound: Cc1ccc2c(c1)N(CC(=O)c1ccccc1C)C(=O)C(NC(=O)Nc1cccc(C(=O)O)c1)CN2C(=O)C(C)(C)C (racemic) [Example 13 (racemate), 3-[3-[1-(2-toluoylmethyl)-2-oxo-5-pivaloyl-8-methyl-1,3,4,5-tetrahydro-2H-1,5-benzodiazepin-3-yl]ureido]benzoic acid]
pKi [1]: 8.50
inhibition in vivo at 3 mg/kg [2, 4]: 80.9%

Compound: Cc1ccc2c(c1)N(CC(=O)c1ccccc1C)C(=O)C(NC(=O)Nc1cccc(C(=O)O)c1)CN2C(=O)C(C)(C)C (single isomer, unassigned; (+)) [Example 13 (+form), (+)-3-[3-[1-(2-toluoylmethyl)-2-oxo-5-pivaloyl-8-methyl-1,3,4,5-tetrahydro-2H-1,5-benzodiazepin-3-yl]ureido]benzoic acid]
pKi [1]: 8.94
inhibition in vivo at 1 mg/kg [2, 4]: 81.5%

Compound: Cc1cccc(NC(=O)NC2CN(C(=O)C(C)(C)C)c3ccccc3N(CC(=O)c3ccccc3C)C2=O)c1 (stereo not shown) [Example 1, 1-[1-(2-toluoylmethyl)-2-oxo-5-pivaloyl-1,3,4,5-tetrahydro-2H-1,5-benzodiazepin-3-yl]-3-(3-methylphenyl)urea]
pKi [1]: 8.19
inhibition in vivo at 30 mg/kg [2, 4]: 59.4%

Compound: CC(C)(C)C(=O)CN1C(=O)C(NC(=O)Nc2cccc(C(=O)O)c2)CN(C(=O)C(C)(C)C)c2ccccc21 (stereo not shown) [Example 10, 3-[3-(1-tert-butylcarbonylmethyl-2-oxo-5-pivaloyl-1,3,4,5-tetrahydro-2H-1,5-benzodiazepin-3-yl)ureido]benzoic acid]
pKi [1]: 8.16
inhibition in vivo at 10 mg/kg ([2]; 10 mg/kg, rat, acid output from 1 to 4 hours after administration, pentagastrin 15 μg/kg/hr): 67.1%

Compound: Cc1ccccc1C(=O)CN1C(=O)C(NC(=O)Nc2cccc(C(=O)O)c2)CN(C(=O)C(C)(C)C)c2ccccc21 (single isomer, unassigned)
pKi [1]: 8.85
inhibition in vivo at 10 mg/kg ([2]; Rattus norvegicus, 4 h): 69.8%

Compound: Cc1cccc(NC(=O)NC2CN(C(=O)C3CCCCC3)c3ccccc3N(CC(=O)c3ccccc3C)C2=O)c1 (stereo not shown) [Example 14, 1-[1-(2-toluoylmethyl)-2-oxo-5-cyclohexylcarbonyl-1,3,4,5-tetrahydro-2H-1,5-benzodiazepin-3-yl]-3-(3-methylphenyl)urea]
pKi [3]: 7.88
